Assay [1] deals with T1, GRK2 (Homo sapiens, UniProt P25098).
T1 sequence (P25098 1-689): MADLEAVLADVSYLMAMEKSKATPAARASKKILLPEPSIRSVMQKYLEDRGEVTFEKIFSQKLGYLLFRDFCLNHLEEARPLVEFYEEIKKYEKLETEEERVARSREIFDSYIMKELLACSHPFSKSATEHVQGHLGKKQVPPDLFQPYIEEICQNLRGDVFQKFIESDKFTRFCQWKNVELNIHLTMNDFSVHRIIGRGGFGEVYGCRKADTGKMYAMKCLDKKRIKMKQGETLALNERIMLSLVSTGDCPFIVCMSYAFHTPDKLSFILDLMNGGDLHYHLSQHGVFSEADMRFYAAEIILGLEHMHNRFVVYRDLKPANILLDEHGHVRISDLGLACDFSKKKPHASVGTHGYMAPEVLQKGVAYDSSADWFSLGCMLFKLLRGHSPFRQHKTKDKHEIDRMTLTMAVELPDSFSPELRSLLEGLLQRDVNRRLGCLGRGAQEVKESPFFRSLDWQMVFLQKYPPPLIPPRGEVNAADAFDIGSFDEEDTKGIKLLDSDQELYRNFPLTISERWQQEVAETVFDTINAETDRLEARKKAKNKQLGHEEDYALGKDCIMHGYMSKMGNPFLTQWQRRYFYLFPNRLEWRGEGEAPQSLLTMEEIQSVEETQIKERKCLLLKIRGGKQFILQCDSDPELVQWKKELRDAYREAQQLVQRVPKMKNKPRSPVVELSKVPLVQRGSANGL
Nature of the assay: Second ADPGlo GRK2 Inhibition Assay (Example 3). Format: biochemical. The following applies: ADP-Glo, 20 μM ATP; read-out: Second ADPGlo Enzymatic GRK2 Assay: IC50 (nM) (Example 3). How it is done: Assay: GRK2 (2 nM) was incubated with ATP (20 μM) and GRKtide (1.2 mg/mL) in 11 μL of assay buffer (see above) for 180 min at room temperature. Compounds were dissolved in 100% DMSO, serially diluted 3.16-fold from 100 μM with 10 concentration points and transferred as 100× into assay plate (final compounds concentration in the reaction plate from 1 μM).
Materials: GRK2 was purchased from SignalChem (Cat #A14-10G, Lot #X645-3). Substrate GRKtide was from SignalChem (Cat #G46-58, Lot #R339-6). ADP-Glo Kinase Assay from Promega (Cat #V9102). Assay buffer consisted of 20 mM HEPES (pH7.5), 20 mM MgCl2, 0.01% Tween-20, 0.05 mM DDT. 384-well white plates were from Corning (Cat #4513).
HTS protocol: Add 5.5 μL of 2× substrate-enzyme mix into all columns except of 1-2 and 24 of reaction plate. Spin 15 seconds at 200 g. Transfer 1 ul of compounds from the plate with serial dilutions (384 well plate with 22 uL of compound in columns 3-22/DMSO solution 1-2,23-24) to Dilution plate (384 well plate with 49 uL of buffer with 2×40 μM ATP). After mixing transfer 5.5 ul from Dilution plate to Reaction plate (to 5.5 μL of 2× substrate-enzyme mix). Spin 15 seconds at 200 g and incubate for 180 min at room temperature with sealing. Add 3 μL ADP-Glo reagent to all the wells. Spin 15 seconds at 200 g and incubate for 40 min at room temperature. Add 6 μL Detection solution to all the wells. Incubate for 30 min at room temperature. Read plate using ClarioStar Plus (BMG).
Data Analysis: Data were analyzed in GraphPad Prism 5.0.2. Each HTS plate contains compounds in columns 3-22, controls (enzyme, no compound) in column 23, and blanks (no enzyme) in columns 2. HTS percent inhibition was calculated for each compound from the signal in luminescence units and the mean of the plate controls and the mean of the plate blanks using the following equation: % Inhibition=100*(1-(signal-blank mean)/(control mean-blank mean)).
(In general: ADP-Glo first removes unused ATP, then detects ADP through luciferase.)

The test system of another assay is PAXF1657 EV. Briefly: 7-day cellular proliferation assay (CellTiter-Glo), PAXF1657 EV. The following applies: 168 h, 7-day, read-out: 7-day proliferation assay: IC50 GeoMean (uM) [Cell Line: PAXF1657 EV]. In kind it is cell-based. A digest of the protocol:
(§1)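 Viability by CellTiter-Glo after 7 days at 37° C., with compound-containing media replaced on day 3. Cells (500/well, RPMI1640 + 10% FBS) were PAXF1657 pairs: GRK2 overexpression vs empty vector, or CRISPR GRK2 knockout vs non-targeting clones; doses 30 μM-0.0002 μM final, 10 points, 0.3% DMSO.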
For orientation: Cellular ATP, detected with luciferase, serves as a proxy for viable cell number.

A further assay has as its system PAXF1657 KO Clone #4. Briefly: 7-day cellular proliferation assay (CellTiter-Glo), PAXF1657 KO Clone #4. The settings on record: 168 h, 7-day, read-out: 7-day proliferation assay: IC50 GeoMean (uM) [Cell Line: PAXF1657 KO Clone #4]. Format: cell-based. The procedure, abridged: as §1
Assay [2] deals with T1, GRK2. Nature of the assay: GRK2 Degradation Assay and Western Blot in PAXF1657 cells. In kind it is cell-based. Also on record: endogenous in cells; host or cells: PAXF1657. The settings on record: PAXF1657 EV, 24 hrs; for inhibition at 0.3 µM: read-out: % GRK2 degradation at 0.3 uM in PAXF1657 EV (24 hrs); for inhibition at 1 µM: read-out: % GRK2 degradation at 1 uM in PAXF1657 EV (24 hrs); for inhibition at 3 µM: read-out: % GRK2 degradation at 3 uM in PAXF1657 EV (24 hrs). A digest of the protocol:
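GRK2 degradation judged by immunoblot: NP40 lysates separated by SDS-PAGE and probed for GRK2 and β-actin, with HRP/ECL detection. Lysates came from PAXF1657 cells exposed to 0–10 μM compound for 6–24 h after reaching 70% confluency.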
A general note: A western blot detects proteins with antibodies after separation by electrophoresis.

With `Cc1ncsc1-c1ccc(CNC(=O)[C@@H]2C[C@@H](O)CN2C(=O)[C@@H](NC(=O)CCCc2cn(CCCCCCCOc3cccc(CNC(=O)c4cccc(NCc5nnc(-c6ccncn6)n5C)c4)c3)nn2)C(C)(C)C)cc1` [Compound D83], the IC50 on GRK2 [1] is less than 100 nM; in the assay on PAXF1657 EV, 1 to 10 µM; in the assay on PAXF1657 KO Clone #4 it was more than 10 µM. Further, on GRK2 [2], the inhibition at 0.3 µM amounted to 2%. Moreover, the inhibition at 1 µM at GRK2 [2] stood at 25%. Also, the inhibition at 3 µM on GRK2 [2] came out at 39%.
On to `COc1cc(OCCNC(=O)CCCCCC(=O)N[C@H](C(=O)C2C[C@H](O)C[C@H]2C(=O)NCc2ccc(-c3scnc3C)cc2)C(C)(C)C)ccc1CNC(=O)c1cccc(NCc2nnc(-c3ccncn3)n2C)c1` (stereo partly shown) [Compound D93], for which, on GRK2 [1], the IC50 was less than 100 nM.
As for `Cn1c(CNc2cccc(C(=O)NCc3ccc(OCCCCCCOCCOCCOCCCCCC(=O)Nc4cccc5c4CN(C4CCC(=O)NC4=O)C5=O)cc3)c2)nnc1-c1ccncn1` (stereo not shown) [Compound D65], the IC50 on GRK2 [1] was less than 100 nM. Further, in the assay on PAXF1657 EV, the IC50 was less than 1 µM. Further, the IC50 with PAXF1657 KO Clone #4 was more than 10 µM. At GRK2 [2], the inhibition at 0.3 µM is 36%, the inhibition at 1 µM was 64% and the inhibition at 3 µM was 67%.
As for `Cn1c(CNc2cccc(C(=O)NCc3cccc(OCCCCCCOCCOCCOCCCC(=O)Nc4cccc5c4CN(C4CCC(=O)NC4=O)C5=O)c3)c2)nnc1-c1ccncn1` (stereo not shown) [Compound D56], the IC50 at GRK2 [1] is less than 100 nM. Besides, the IC50 in the assay on PAXF1657 EV lay within 1 to 10 µM. For the same compound, the IC50 with PAXF1657 KO Clone #4 is more than 10 µM. Besides, at GRK2 [2], the inhibition at 0.3 µM stood at 25%, the inhibition at 1 µM came out at 52% and the inhibition at 3 µM was found to be 64%.
Consider `COc1cc(OCC(=O)NCCOCCOCC(=O)N[C@H](C(=O)N2C[C@H](O)C[C@H]2C(=O)NCc2ccc(-c3scnc3C)cc2)C(C)(C)C)ccc1CNC(=O)c1cccc(NCc2nnc(-c3ccncn3)n2C)c1` [Compound D95], for which, at GRK2 [1], the IC50 was less than 100 nM.
Still for that read-out and setting: the result for `Cc1ncsc1-c1ccc(CNC(=O)[C@@H]2C[C@@H](O)CN2C(=O)[C@@H](NC(=O)CCCCCOCCOCCCCCCOc2cccc(CNC(=O)c3cccc(NCc4nnc(-c5ccncn5)n4C)c3)c2)C(C)(C)C)cc1` [Compound D76] reads less than 100 nM.
Turning to `Cc1ncsc1-c1ccc(CNC(=O)[C@@H]2C[C@@H](O)CN2C(=O)[C@@H](NC(=O)CCCOCCOCCOCCCCCCOc2cccc(CNC(=O)c3cccc(NCc4nnc(-c5ccncn5)n4C)c3)c2)C(C)(C)C)cc1` [Compound D77], the IC50 was less than 100 nM at GRK2 [1], less than 1 µM with PAXF1657 EV and more than 10 µM with PAXF1657 KO Clone #4. Also, the inhibition at 0.3 µM on GRK2 [2] was -4%. The inhibition at 1 µM on GRK2 [2] was -1%. Also, the inhibition at 3 µM on GRK2 [2] was -7%.
In the case of `Cc1ncsc1-c1ccc(CNC(=O)[C@@H]2C[C@@H](O)CN2C(=O)[C@@H](NC(=O)CCCCCCOc2cccc(CNC(=O)c3cccc(NCc4nnc(-c5ccncn5)n4C)c3)c2)C(C)(C)C)cc1` [Compound D96], the IC50 at GRK2 [1] was less than 100 nM; in the assay with PAXF1657 EV it was 1 to 10 µM; in the assay with PAXF1657 KO Clone #4 it was more than 10 µM. Further, on GRK2 [2], the inhibition at 0.3 µM came out at 19%. The inhibition at 1 µM at GRK2 [2] turned out to be 31%. In addition, the inhibition at 3 µM on GRK2 [2] came to 6%.
Take `Cn1c(CNc2cccc(C(=O)NCc3cccc(OCCCCCCOCCOCCCCCC(=O)Nc4cccc5c4CN(C4CCC(=O)NC4=O)C5=O)c3)c2)nnc1-c1ccncn1` (stereo not shown) [Compound D52]: on GRK2 [1], the IC50 was less than 100 nM.
Still for that read-out and setting: the result for `COc1cc(OCCNC(=O)CCOCCOCCOCCNC(=O)Nc2cccc3c2CN(C2CCC(=O)NC2=O)C3=O)ccc1CNC(=O)c1cccc(NCc2nnc(-c3ccncn3)n2C)c1` (stereo not shown) [Compound D68] reads more than 1000 nM.
As for `Cn1c(CNc2cccc(C(=O)NCc3cccc(OCCCCCCn4cc(CCCCC(=O)Nc5cccc6c5CN(C5CCC(=O)NC5=O)C6=O)nn4)c3)c2)nnc1-c1ccncn1` (stereo not shown) [Compound D62], on GRK2 [1], the IC50 is less than 100 nM. Also, the IC50 in the assay on PAXF1657 EV was more than 10 µM. In addition, the IC50 in the assay with PAXF1657 KO Clone #4 was more than 10 µM. At GRK2 [2], the inhibition at 0.3 µM was 35%, the inhibition at 1 µM stood at 56% and the inhibition at 3 µM came out at 75%.
`Cc1ncsc1-c1ccc(CNC(=O)[C@@H]2C[C@@H](O)CN2C(=O)[C@@H](NC(=O)CCCOc2cccc(CNC(=O)c3cccc(NCc4nnc(-c5ccncn5)n4C)c3)c2)C(C)(C)C)cc1` [Compound D97]: the IC50 on GRK2 [1] was less than 100 nM; in the assay with PAXF1657 EV, more than 10 µM; in the assay with PAXF1657 KO Clone #4, 1 to 10 µM. Also, the inhibition at 1 µM on GRK2 [2] was determined as 11%.
For the compound `Cc1ncsc1-c1ccc(CNC(=O)[C@@H]2C[C@@H](O)CN2C(=O)[C@@H](NC(=O)COCCCOCCCCCOc2cccc(CNC(=O)c3cccc(NCc4nnc(-c5ccncn5)n4C)c3)c2)C(C)(C)C)cc1` [Compound D85, (2S,4R)-1-((S)-3,3-dimethyl-2-(2-(3-((5-(3-((3-(((4-methyl-5-(pyrimidin-4-yl)-4H-1,2,4-triazol-3-yl)methyl)amino)benzamido)methyl)phenoxy)pentyl)oxy)propoxy)acetamido)butanoyl)-4-hydroxy-N-(4-(4-methylthiazol-5-yl)benzyl)pyrrolidine-2-carboxamide], the IC50 is less than 100 nM on GRK2 [1], 1 to 10 µM in the assay on PAXF1657 EV and more than 10 µM with PAXF1657 KO Clone #4. Besides, at GRK2 [2], the inhibition at 0.3 µM stood at 17%. For the same compound, the inhibition at 1 µM on GRK2 [2] is 34%. In addition, the inhibition at 3 µM on GRK2 [2] came to 30%.
Regarding `COc1cc(OCC(=O)NCCOCCOCCNC(=O)COCC(=O)N[C@H](C(=O)N2C[C@H](O)C[C@H]2C(=O)NCc2ccc(-c3scnc3C)cc2)C(C)(C)C)ccc1CNC(=O)c1cccc(NCc2nnc(-c3ccncn3)n2C)c1` [Compound D94], at GRK2 [1], the IC50 fell in the range of 100 to 1000 nM.
In the case of `Cc1ncsc1-c1ccc(CNC(=O)[C@@H]2C[C@@H](O)CN2C(=O)[C@@H](NC(=O)CCCCCOCCCCCOCCCCCCOc2cccc(CNC(=O)c3cccc(NCc4nnc(-c5ccncn5)n4C)c3)c2)C(C)(C)C)cc1` [Compound D98], the IC50 on GRK2 [1] is less than 100 nM.
As for `Cn1c(CNc2cccc(C(=O)NCc3cccc(OCCCC(=O)Nc4cccc5c4CN(C4CCC(=O)NC4=O)C5=O)c3)c2)nnc1-c1ccncn1` (stereo not shown) [Compound D70], the IC50 at GRK2 [1] is less than 100 nM.
Same read-out and setting: the result for `Cn1c(CNc2cccc(C(=O)NCc3cccc(OCCCCCCC(=O)Nc4cccc5c4CN(C4CCC(=O)NC4=O)C5=O)c3)c2)nnc1-c1ccncn1` (stereo not shown) [Compound D69] reads less than 100 nM.

The record behind these values is patent US20240174637A1, “DEGRADERS OF GRK2 AND USES THEREOF” (Sonata Therapeutics, Inc., priority 2021, published 2024).
